Laboratory results: the NIST ThermoML archive (doi:10.1021/je900266h)

Test: refractive index (Na D-line) (dimensionless); wn = mass fraction of the nth substance listed
Settings: 101 kPa, Liquid, Standard Abbe refractometry

CCO [ethanol] + O
refractive index
Settings	288.15 K	298.15 K	308.15 K	318.15 K
w1 = 0.02468	1.33491	1.33402	1.33282	1.33124
w1 = 0.0538	1.33686	1.33587	1.33455	1.33301
w1 = 0.07815	1.33854	1.33765	1.33619	1.33449
w1 = 0.1014	1.34032	1.33915	1.33771	1.3358
w1 = 0.1249	1.34209	1.34095	1.33923	1.33736
w1 = 0.1528	1.34443	1.34294	1.34104	1.33895
w1 = 0.1778	1.34627	1.34475	1.34272	1.34054
w1 = 0.2036	1.34829	1.34651	1.34435	1.3418
w1 = 0.225	1.34976	1.34781	1.34551	1.34311
w1 = 0.247	1.35137	1.34934	1.34682	1.34418
w1 = 0.2699	1.35281	1.35056	1.3479	1.34519
w1 = 0.2955	1.35435	1.35212	1.34922	1.3464
w1 = 0.3241	1.35595	1.35363	1.35053	1.34772
w1 = 0.3468	1.3572	1.3546	1.35164	1.34853
w1 = 0.3723	1.35843	1.35567	1.35252	1.34932
w1 = 0.3959	1.3597	1.35665	1.35342	1.34997
w1 = 0.4255	1.36073	1.35765	1.35448	1.35103
w1 = 0.4462	1.36161	1.35831	1.35501	1.35147
w1 = 0.4735	1.36235	1.35919	1.35566	1.35212
w1 = 0.4969	1.36316	1.35969	1.3562	1.35251
w1 = 0.5239	1.36378	1.36042	1.35667	1.35301
w1 = 0.5458	1.36431	1.36078	1.35731	1.3533
w1 = 0.5709	1.36482	1.36134	1.3577	1.35369
w1 = 0.5972	1.36547	1.36186	1.35801	1.35385
w1 = 0.6203	1.36582	1.36199	1.35825	1.35417
w1 = 0.6467	1.36603	1.36243	1.35839	1.3543
w1 = 0.6694	1.36636	1.36263	1.35867	1.35455
w1 = 0.6959	1.36665	1.36288	1.35875	1.35454
w1 = 0.7187	1.36663	1.36306	1.35892	1.35469
w1 = 0.7494	1.36702	1.36313	1.35895	1.35471
w1 = 0.7672	1.36703	1.36317	1.35902	1.35475
w1 = 0.7993	1.36694	1.36318	1.35879	1.35484
w1 = 0.8187	1.36705	1.3632	1.35887	1.35478
w1 = 0.8451	1.36683	1.36289	1.3586	1.35457
w1 = 0.867	1.36684	1.36278	1.35844	1.35421
w1 = 0.9028	1.36637	1.3623	1.35782	1.35374
w1 = 0.9235	1.36603	1.36196	1.35743	1.35333
w1 = 0.9481	1.36528	1.36123	1.35677	1.35255
w1 = 0.9752	1.36454	1.36037	1.3559	1.35171
w1 = 1	1.36344	1.35922	1.35477	1.35068
